Experimental findings from the OPERA property sets (Mansouri et al. 2018) are described below.

Conditions in the first series: not given
Molecule `O=C(O)c1ccoc1` had a melting point of 122 °C.
On to `CC(C)C(C)(C)C`, for which the boiling point turned out to be 80.8 °C, the log10 biodegradation half-life (days) worked out at 0.778, the log10 vapour pressure (mmHg) turned out to be 2.01 and the melting point was -25 °C.
`C=C1CC(=O)O1`: the boiling point was found to be 126 °C, the log10 vapour pressure (mmHg) was found to be 1.03, the melting point is -6.5 °C and the ready biodegradability result is on record as “readily biodegradable”.
As for `Oc1ccc(O)c(Br)c1`, the melting point turned out to be 112 °C.
Consider `CC(C)(C)CC(C)(C)c1ccc(O)cc1`, for which the log10 vapour pressure (mmHg) was -3.32, the melting point worked out at 84.5 °C and the ready biodegradability entry is reported as “not readily biodegradable”.
As for `C=C/C=C\CC1=C(C)[C@@H](OC(=O)[C@@H]2[C@@H](/C=C(\C)C(=O)OC)C2(C)C)CC1=O`, the log10 vapour pressure (mmHg) was -6.4.
Molecule `CC1CCCC(C)C1` (centres undefined) displayed a boiling point of 122 °C and a log10 vapour pressure (mmHg) of 1.3.
The molecule `c1ccc2nc3ccc4ccccc4c3cc2c1` yielded a log10 Koc (L/kg) of 4.39.
Molecule `COc1cc2c(c(O)c1OC)CNCC2` registered a melting point of 188 °C.
`CS(=O)(=O)Cl` displayed a boiling point of 162 °C.
`CC(C)=CCCC(C)CCO` (centres undefined) returned a log10 vapour pressure (mmHg) of -1.36.
As for `CCCCCCCCCCCCCCCCCC(=O)OCCOCCOCCOCCO`, the melting point was 40 °C.
With `CCCC(C)(C)CC(C)C`, the boiling point amounted to 151 °C.
The molecule `O=CCC(O)[C@H](O)CO` (stereo in doubt) had a melting point of 91 °C.
The same measure, in the same setting: with `CN(C)c1nc(N(C)C)nc(N(C)C)n1` the figure was 173 °C.
Consider `FC(F)(F)c1nc(C(F)(F)F)nc(C(F)(F)F)n1`, for which the boiling point came out at 95.5 °C and the melting point was -24.8 °C.
As to `CC(=O)Oc1c(C(C)(C)C)cc([N+](=O)[O-])c(C)c1[N+](=O)[O-]`, the melting point is 86.5 °C.
In turn, `Cc1cnc2ccccc2n1` came in with a boiling point of 244 °C and a melting point of 180 °C.
The molecule `CCNCc1ccccc1` displayed a boiling point of 194 °C.
Turning to `Cc1ccc(C(=O)c2ccccc2)c(C)c1`, the boiling point was 322 °C.
In turn, `Cc1cccc(CO)c1` showed a boiling point of 216 °C.
For the molecule `Cc1ccc(N)c(C)c1`, the boiling point came out at 214 °C, the log10 vapour pressure (mmHg) is -0.876, the melting point is -14.3 °C and the ready biodegradability result is recorded as “not readily biodegradable”.
`C=C(Cl)C(Cl)CCl` (centres undefined) registered a boiling point of 155 °C and a log10 vapour pressure (mmHg) of 0.274.
`OC1(c2ccccc2)CCCCC1` returned a melting point of 63.5 °C.
For the molecule `CCC(C)c1ccc(O)c([N+](=O)[O-])c1` (centres undefined), the log10 Henry constant (atm·m³/mol) was -4.02 and the log10 vapour pressure (mmHg) was -2.34.
Take `Fc1c(F)c(F)c(I)c(F)c1F`: the boiling point amounted to 166 °C and the melting point is -29 °C.
Consider `FC(F)I`, for which the boiling point came out at 21.6 °C and the melting point is -122 °C.
With `O=C1CC(=O)NC(=S)N1`, the log10 vapour pressure (mmHg) is -7.7.
With `CN1CCCN=C1/C=C/c1cccs1`, the melting point stood at 178 °C.
`C=C(C)C=O` registered a boiling point of 68.4 °C, a log10 Henry constant (atm·m³/mol) of -3.63, a log10 vapour pressure (mmHg) of 2.19 and a melting point of -81 °C.
In turn, `Cc1ccccc1NC(=O)c1ccccc1` gave a melting point of 146 °C.
In the case of `CC(=O)O[C@@H](C(=O)O)c1ccccc1`, the melting point came out at 97 °C.
With `CP(=O)(O)CCC(N)C(=O)O` (centres undefined), the log10 Koc (L/kg) was found to be 2.63 and the ready biodegradability result is given as “readily biodegradable”.
On to `Nc1cccc(N)n1`, for which the boiling point is 285 °C, the melting point turned out to be 122 °C and the ready biodegradability entry is recorded as “not readily biodegradable”.
The molecule `CC1=CC(=O)C[C@H](C)C1` displayed a boiling point of 208 °C.
As for `COc1ccc2cc1Oc1ccc(cc1)C[C@H]1c3cc(c(OC)cc3CCN1C)Oc1c(OC)c(OC)cc3c1[C@H](C2)N(C)CC3`, the melting point came to 218 °C.
On to `Cc1c(Cl)cccc1Nc1ccccc1C(=O)O`, for which the melting point is 207 °C and the ready biodegradability result is “not readily biodegradable”.
On to `COC(=O)C[C@@H](C)C(=O)OC`, for which the boiling point came to 196 °C.
On to `CN(C)C(=O)Nc1ccc(Cl)c(Cl)c1`, for which the log10 Koc (L/kg) amounted to 2.4, the log10 vapour pressure (mmHg) was -7.16, the melting point was found to be 158 °C and the ready biodegradability entry was “not readily biodegradable”.
Turning to `Clc1ccc(Cl)c(-c2ccccc2)c1Cl`, the log10 Henry constant (atm·m³/mol) was -3.66.
As for `NS(=O)(=O)c1ccc(SCCO)c(F)c1`, the melting point stood at 110 °C.
On to `CC(C)C(=O)Cl`, for which the boiling point stood at 92 °C and the melting point was -90 °C.
On to `FC(F)(F)c1ccccc1Cl`, for which the boiling point was 152 °C, the log10 vapour pressure (mmHg) is 0.706 and the melting point is -6 °C.
For the molecule `CCC(C)(C)C(=O)O[C@H]1C[C@@H](C)C=C2C=C[C@H](C)[C@H](CC[C@@H]3C[C@@H](O)CC(=O)O3)[C@H]21`, the melting point turned out to be 136 °C.
Turning to `c1ccc2c(Nc3cccc4ccccc34)cccc2c1`, the melting point amounted to 115 °C.
`CCOc1cc(Cl)c(N)c(Cl)c1` registered a boiling point of 275 °C and a melting point of 46 °C.
On to `C=C(C)C(=O)OCCOCCOC(=O)C(=C)C`, for which the ready biodegradability result was “readily biodegradable”.
For `O=C1C=CC2(CCC23C=CC(=O)O3)O1` (centres undefined), the melting point was 158 °C.
In turn, `Oc1nc(O)c2nccnc2n1` had a melting point of 348 °C.
In the case of `C1C2CC3C4CC5CC(C14)C(C2)C3C5`, the log10 biodegradation half-life (days) is 3.3.
On to `CC(C(O)c1ccc(O)cc1)N1CCC(Cc2ccccc2)CC1` (centres undefined), for which the melting point is 114 °C.
In the case of `CCC(CO)CC(C)C` (centres undefined), the log10 vapour pressure (mmHg) was -0.625.
Turning to `COc1cc2c(c(O)c1OC)[C@H](C)NCC2`, the melting point was 160 °C.
Regarding `Cc1nc(C)c(C)nc1C`, the boiling point was determined as 190 °C and the melting point was found to be 85 °C.
Turning to `Cc1cc(N)ccc1O`, the melting point turned out to be 176 °C.
In turn, `O=C(c1ccc(Cl)cc1)c1ccccc1Cl` showed a melting point of 67 °C.
With `CCCCOC(=O)c1ccccc1C(=O)OCc1ccccc1`, the boiling point was 370 °C, the log10 Koc (L/kg) is 3.72, the log10 vapour pressure (mmHg) was -5.08 and the ready biodegradability result is “readily biodegradable”.
Consider `C=C(C)[C@@H]1CC[C@@H](C)[C@@H](O)C1`, for which the boiling point stood at 224 °C.
As to `Cc1cc(C(=O)NCCc2ccc(S(=O)(=O)NC(=O)NN3CCCCCC3)cc2)no1`, the melting point is 189 °C.
`c1ccc2nsnc2c1` showed a boiling point of 203 °C and a melting point of 43 °C.
With `CC(C)c1cccc(O)c1O`, the melting point was found to be 47 °C.
For the molecule `CN(C)c1ccc(N=C2C=CC(=O)C=C2)cc1`, the melting point was found to be 134 °C.
As for `CCCCCCCCCCCCCCCO`, the log10 vapour pressure (mmHg) was -4.41, the melting point worked out at 45.5 °C and the ready biodegradability entry is “readily biodegradable”.
Molecule `OC[C@H]1O[C@@](CO)(O[C@H]2O[C@H](CO)[C@@H](O)[C@H](O)[C@H]2O)[C@@H](O)[C@@H]1O` showed a melting point of 186 °C.
`BrCC(Br)(Br)Br`: the melting point worked out at 0 °C.
On to `O=C(O)c1ccc2ccccc2c1`, for which the log10 vapour pressure (mmHg) was -5.18, the melting point is 186 °C and the ready biodegradability result is on record as “readily biodegradable”.
With `CCCCCCCCCCCCCCCCCCC1CO1` (centres undefined), the ready biodegradability entry is on record as “readily biodegradable”.
`CN(C)CCN1C(=O)c2ccccc2Nc2cc(Cl)ccc21`: the melting point was 166 °C.
`Cc1[nH]ncc1Br` gave a melting point of 76.5 °C.
On the same count and under the same terms, then `C1CCN(SSN2CCCCC2)CC1`, with 64.2 °C.
`S=C(S)NCCNC(=S)S`: the ready biodegradability entry was “not readily biodegradable”.
As for `O=c1ccc2ccc(O)c(O)c2o1`, the melting point was 262 °C.
With `C=CCCCCCCCCCCCCCCC`, the boiling point worked out at 300 °C, the log10 vapour pressure (mmHg) was -3.34 and the melting point was determined as 11.5 °C.

Staying with this series, now noted: fish.
With `CC(C)(C)CC(C)(C)c1ccc(O)cc1`, the log10 BCF is 2.46 and the log10 biotransformation half-life (days) is -0.04.
Turning to `c1ccc2nc3ccc4ccccc4c3cc2c1`, the log10 BCF was found to be 2.02.
`Clc1ccc(-c2cc(Cl)c(Cl)c(Cl)c2)cc1` yielded a log10 biotransformation half-life (days) of 1.69.
`CN(C)C(=O)Nc1ccc(Cl)c(Cl)c1` yielded a log10 BCF of 1.15 and a log10 biotransformation half-life (days) of -1.45.
Taken in the same sequence, the figures for `CCCCOC(=O)c1ccccc1C(=O)OCc1ccccc1` were 1.21 and -1.03.

For orientation: melting point means the temperature of the solid-liquid transition. Usually boiling point stands for the temperature of boiling at a given pressure.
